Literature values, collected in patent US20090239923A1 (priority 2008, published 2009).

System: human body
Conditions: ingestion, 70 Kg human body; 90 mL = 70 g

CO [methanol]
Lethal dose: 90 mL
